Assay results as given in ChEMBL document CHEMBL2331295, “Characterization of a selective CaMKII peptide inhibitor” (Eur J Med Chem, 2013).
Active and inactive are the calls of the source. The rule behind the calls is not given here.

Key:
[1] = target: Calcium/calmodulin-dependent protein kinase type II subunit alpha (Homo sapiens) (UniProt Q9UQM7); assay: Inhibition of GFP-tagged CAMK2alpha (unknown origin) expressed in african green monkey Vero cells using syntide2 as substrate assessed as incorporation of 32P at 5 uM after 30 mins by scintillation counting analysis in presence of [gamma32P]ATP relative to control; type: cell-based
Chain of Calcium/calmodulin-dependent protein kinase type II subunit alpha (Homo sapiens) (Q9UQM7 whole entry): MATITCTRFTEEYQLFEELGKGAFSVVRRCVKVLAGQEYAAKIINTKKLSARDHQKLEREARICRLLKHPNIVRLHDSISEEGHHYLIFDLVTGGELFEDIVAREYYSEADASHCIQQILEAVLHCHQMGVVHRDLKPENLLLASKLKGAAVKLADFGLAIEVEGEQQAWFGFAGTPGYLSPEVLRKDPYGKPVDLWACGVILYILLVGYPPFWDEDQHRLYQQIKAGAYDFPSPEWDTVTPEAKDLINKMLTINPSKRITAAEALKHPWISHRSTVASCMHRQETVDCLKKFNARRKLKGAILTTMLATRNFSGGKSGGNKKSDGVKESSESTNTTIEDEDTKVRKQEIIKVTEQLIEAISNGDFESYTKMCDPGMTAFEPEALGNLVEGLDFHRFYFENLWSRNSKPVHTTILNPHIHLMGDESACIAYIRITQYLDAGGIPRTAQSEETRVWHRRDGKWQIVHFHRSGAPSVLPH

H9c2 = assay: Inhibition of serum-induced endogenous CAMK2 activation in […] H9C2 cells at 5 uM after 30 mins relative to control; type: cell-based
[2] = target: T1, Calcium/calmodulin-dependent protein kinase type IV (Homo sapiens) (UniProt Q16566); assay: Inhibition of CAMK4 (unknown origin) using gamma peptide as substrate assessed as incorporation of 32P at 5 uM after 30 mins by scintillation counting analysis in presence of [gamma32P]ATP relative to control
T1 sequence (whole entry): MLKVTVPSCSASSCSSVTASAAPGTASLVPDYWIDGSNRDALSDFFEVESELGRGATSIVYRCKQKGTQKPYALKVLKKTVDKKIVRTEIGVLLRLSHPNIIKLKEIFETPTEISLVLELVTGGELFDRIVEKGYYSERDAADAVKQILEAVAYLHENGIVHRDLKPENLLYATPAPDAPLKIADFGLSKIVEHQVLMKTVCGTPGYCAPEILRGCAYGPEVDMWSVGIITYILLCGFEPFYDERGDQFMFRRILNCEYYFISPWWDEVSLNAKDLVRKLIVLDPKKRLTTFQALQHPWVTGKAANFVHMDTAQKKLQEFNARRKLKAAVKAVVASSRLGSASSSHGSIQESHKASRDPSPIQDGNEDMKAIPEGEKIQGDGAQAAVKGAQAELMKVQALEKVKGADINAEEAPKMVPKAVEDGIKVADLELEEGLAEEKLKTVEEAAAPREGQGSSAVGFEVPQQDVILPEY

[3] = target: Calcium/calmodulin-dependent protein kinase type 1 (Homo sapiens) (UniProt Q14012); assay: Inhibition of CAMK1 (unknown origin) using ADR1G as substrate assessed as incorporation of 32P at 5 uM after 30 mins by scintillation counting analysis in presence of [gamma32P]ATP relative to control
Chain of Calcium/calmodulin-dependent protein kinase type 1 (Homo sapiens) (Q14012 whole entry, looked up): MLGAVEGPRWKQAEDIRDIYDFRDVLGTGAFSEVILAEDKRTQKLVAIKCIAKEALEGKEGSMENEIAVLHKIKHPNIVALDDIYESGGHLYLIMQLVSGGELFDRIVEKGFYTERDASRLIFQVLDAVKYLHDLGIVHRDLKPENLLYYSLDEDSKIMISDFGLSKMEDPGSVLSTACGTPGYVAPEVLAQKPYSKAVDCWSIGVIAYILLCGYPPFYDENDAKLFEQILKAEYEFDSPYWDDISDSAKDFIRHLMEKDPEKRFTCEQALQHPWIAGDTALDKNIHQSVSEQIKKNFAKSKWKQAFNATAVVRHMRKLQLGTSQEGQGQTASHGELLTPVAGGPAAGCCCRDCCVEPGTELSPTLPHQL

Substance | inhibition [1] [%] | inhibition (H9c2) [%] | inhibition [2] | inhibition [3] [%]
H-KRPPKLGQIGRSKRVVI-OH | < 70 |  |  | 
H-RQIKIWFQNRRMKWKKGGCKRPPKLGQIGRAKRVVI-OH |  | 52 | inactive | 6.1
